Results taken from paper PMC5617480 (Oncotarget, 2017).

Experiments:
[1] = tested on: c-kit-1; assay: FID assay; format: binding; conditions: for c-kit-1DC50: FID; for ctDNADC50/c-kit-1DC50: FID selectivity ratio
[2] = tested on: Pu22; assay: FID assay; format: binding; conditions: for Pu22DC50: FID; for ctDNADC50/Pu22DC50: FID selectivity ratio
[3] = tested on: FPu18T; assay: FRET-melting assay; format: binding; conditions: FPu18T 1.0 μM, compound 2.0 μM
Procedure: (§1) We asked whether chiral platinum(II) complexes 4–6 have the ability to bind to G-quadruplex DNA. To address this, FRET assays, CD spectroscopy, G4-FID assays, and fluorescence titration analysis were performed. […] For G4-HTG21, the ^G4DC50 values of complexes 4–6 were 1.23, 1.26 and 0.99 μM, respectively; while, for G4-Pu27, the ^G4DC50 values were 1.01, 0.89, and 0.82 μM, respectively. In addition, the ^ctDNADC50/^G4DC50 ratio of the HTG21 and Pu27 G4s treated with complexes 4–6 was in the range of 50.54-90.65 and 71.56-110.67 folds, respectively. To further evaluate the binding ability of complexes 4–6 to Pu27 and HTG21G4s, CD spectroscopy and fluorescence titration analysis were performed. […] The quenching ability of complexes 4–6 to HTG21 and Pu27 G4 DNA fluorescence can be quantitatively estimated by their respective quenching constant (Kq), which was derived from the Stern-Volmer quenching equation. […] Finally, the selective binding of complexes 4–6 towards G4 DNA was analyzed by FRET-melting assays. […] In contrast, the ΔTm value for the F32T+H20M duplex DNA in the presence of complexes 4–6 was 1.18, 1.34, and 0.78 °C under the same conditions (Figure 4A). Altogether, our data indicated complexes 4–6, especially complex 6, is the best binder to G4 DNA, which caused DNA complex displaying the highest thermodynamic stability.
(§2) Figure 4 Complexes 4–6 induced telomeres damage and inhibited the telomerase activity through directly regulating the mRNA level of c-myc promoter (Pu27) (A) ΔTm data (°C) of 1.0 μM HTG21, Pu39 and c-myc G4s and duplex DNA (F32T+H20M) treated with complexes 1–6 at 0–2.0 μM were evaluated by […]. (B) The levels of TRF2, 53BP1, and TRF1 in BEL-7404 cells treated with complexes 4–6 at 10 μM for 24 h were examined by Western blot. (C) The whole-cell extracts were prepared and analyzed by Western blot analysis using antibodies against TRF2, 53BP1, and TRF1. The same blots were stripped and re-probed with β-actin antibody to show equal protein loading. Western blotting bands from three independent measurements were quantified with Image J. in (B). (D) The influence of complexes 4–6 (10 μM) on the telomerase activity of the BEL-7404 cells for 24 h. (E) The investigations of the expression of c-myc and hTERT in the BEL-7404 tumor cells when incubated with complexes 4–6 (10 μM) for 24 h. C-myc and hTERT protein levels in BEL-7404 cells were analyzed by western blot. (F) The whole-cell extracts were prepared and analyzed by Western blot analysis using antibodies against c-myc and hTERT. The same blots were stripped and re-probed with β-actin antibody to show equal protein loading. Western blotting bands from three independent measurements were quantified with Image J. in (E). (G) qRT-PCR analysis of the expression levels of hTERT and c-myc in the BEL-7404 cells treated with complexes 4–6 (10 μM). The BEL-7404 cells (5×10^5) were treated with complexes 4–6 (10 μM) for 24 h. The total RNA in the cells was extracted and subjected to reverse transcription, followed by PCR for c-myc, hTERT, and GAPDH (control). (H) and (I) The investigations of the role of the transfections of EGFP plasmid vector (H) and c-myc plasmid vector (I) in the BEL-7404 tumor cells when incubated with complexes 4–6 (10 μM) for 24 h. First, 2.0 μg of EGFP-carrying plasmid vector or 2.0 μg of c-myc-carrying plasmid vector was cotransfected into BEL-7404 cells using Lipofectamine 2000 (Invitrogen, Grand Island, NY, USA). Complexes 4–6 (10 μM) were then added, respectively, into medium at 6.0 h after transfection of c-myc plasmid. At another 24 h after treatment with complexes 4–6 (10 μM), these cells were imaged using Nikon TE2000 (Japan) scanning fluorescent microscope or were examined by Multimodel Plate Reader with luciferase reporter gene assay kit. […]

[4] = tested on: F32T+H20M duplex DNA; assay: FRET-melting assay; format: binding; conditions: F32T+H20M duplex DNA 1.0 μM, compound 2.0 μM
Procedure: as §1, §2

[5] = tested on: F21T; assay: FRET-melting assay; format: binding; conditions: F21T 1.0 μM, compound 2.0 μM
Procedure: as §1, §2

[6] = tested on: ctDNA; set-up: method as in earlier work; conditions: ref [1], cited from earlier work; for ctDNADC50/ctDNADC50: FID selectivity ratio; for ctDNADC50: FID
[7] = tested on: A549 cells; set-up: method as in earlier work; conditions: A549, 48 h; ref [1]; cited from earlier work
[8] = tested on: F21T (DNA, G4) GGGCTAGGGCTAGGGCTAGGG; assay: FRET melting; conditions: 100 mM K+; 10 mM Tris-HCl, pH 7.35; 2.0 μM compound, 1.0 μM DNA
[9] = tested on: FPu18T (DNA, G4) AGGGTGGGGAGGGTGGGG; assay: FRET melting; conditions: 100 mM K+; 10 mM Tris-HCl, pH 7.35; 2.0 μM compound, 1.0 μM DNA

## cis-[PtCl2(R/S-(±)-FOA)] [complex 4]
[1]
  c-kit-1DC50: 1.45 µM
  ctDNADC50/c-kit-1DC50: 52.32
[2]
  Pu22DC50: 7.41 µM
  ctDNADC50/Pu22DC50: 10.24
[3]
  ΔTm: 19.15 °C
[4]
  ΔTm: 1.18 °C
[5]
  ΔTm: 13.19 °C

## cis-[PtCl2(S-(–)-FOA)] [complex 6]
[1]
  c-kit-1DC50: 1.75 µM
  ctDNADC50/c-kit-1DC50: 51.85
[2]
  Pu22DC50: 1.14 µM
  ctDNADC50/Pu22DC50: 79.59
[3]
  ΔTm: 23.01 °C
[4]
  ΔTm: 0.78 °C
[5]
  ΔTm: 20.07 °C

## O=C(NC[C@H](O)CO)c1cnc2c3c(cccc13)-c1ccccc1C2=O.[Cl-].[Cl-].[Pt+2] [ligand 3, S-(–)-FOA]
[6]
  ctDNADC50/ctDNADC50: 1.00
  ctDNADC50: 89.82 µM
[7]
  IC50: 20.4 ± 0.3 µM
[8]
  ΔTm: 20.07 °C
[9]
  ΔTm: 23.01 °C

## O=C(NC[C@@H](O)CO)c1cnc2c3c(cccc13)-c1ccccc1C2=O.[Cl-].[Cl-].[Pt+2] [ligand 2, R-(+)-FOA]
[6]
  ctDNADC50/ctDNADC50: 1.00
  ctDNADC50: 39.98 µM
[7]
  IC50: 24.1 ± 0.4 µM
[8]
  ΔTm: 12.95 °C
[9]
  ΔTm: 16.66 °C

## O=C(NCC(O)CO)c1cnc2c3c(cccc13)-c1ccccc1C2=O.[Cl-].[Cl-].[Pt+2] (racemic) [ligand 1, R/S-(±)-FOA]
[6]
  ctDNADC50/ctDNADC50: 1.00
  ctDNADC50: 63.96 µM
[7]
  IC50: 20.2 ± 0.5 µM
[8]
  ΔTm: 13.19 °C
[9]
  ΔTm: 19.15 °C

## cis-[PtCl2(R-(+)-FOA)] [complex 5]
[1]
  c-kit-1DC50: 23.89 µM
  ctDNADC50/c-kit-1DC50: 2.67
[2]
  Pu22DC50: 1.74 µM
  ctDNADC50/Pu22DC50: 36.60
[3]
  ΔTm: 16.66 °C
[4]
  ΔTm: 1.34 °C
[5]
  ΔTm: 12.95 °C
